What is called Ki is a dissociation constant, usually derived from enzyme kinetics or from competition with a known ligand.

Targets include PIK3CB (Human) (UniProt P42338); PIK3CA (human) (UniProt P42336); PIK3CD (Human) (UniProt O00329); PIK3CG (human) (UniProt P48736).
What all share (assay): Enzyme Assay

Sequence of PIK3CB (Human) (P42338 whole entry, looked up): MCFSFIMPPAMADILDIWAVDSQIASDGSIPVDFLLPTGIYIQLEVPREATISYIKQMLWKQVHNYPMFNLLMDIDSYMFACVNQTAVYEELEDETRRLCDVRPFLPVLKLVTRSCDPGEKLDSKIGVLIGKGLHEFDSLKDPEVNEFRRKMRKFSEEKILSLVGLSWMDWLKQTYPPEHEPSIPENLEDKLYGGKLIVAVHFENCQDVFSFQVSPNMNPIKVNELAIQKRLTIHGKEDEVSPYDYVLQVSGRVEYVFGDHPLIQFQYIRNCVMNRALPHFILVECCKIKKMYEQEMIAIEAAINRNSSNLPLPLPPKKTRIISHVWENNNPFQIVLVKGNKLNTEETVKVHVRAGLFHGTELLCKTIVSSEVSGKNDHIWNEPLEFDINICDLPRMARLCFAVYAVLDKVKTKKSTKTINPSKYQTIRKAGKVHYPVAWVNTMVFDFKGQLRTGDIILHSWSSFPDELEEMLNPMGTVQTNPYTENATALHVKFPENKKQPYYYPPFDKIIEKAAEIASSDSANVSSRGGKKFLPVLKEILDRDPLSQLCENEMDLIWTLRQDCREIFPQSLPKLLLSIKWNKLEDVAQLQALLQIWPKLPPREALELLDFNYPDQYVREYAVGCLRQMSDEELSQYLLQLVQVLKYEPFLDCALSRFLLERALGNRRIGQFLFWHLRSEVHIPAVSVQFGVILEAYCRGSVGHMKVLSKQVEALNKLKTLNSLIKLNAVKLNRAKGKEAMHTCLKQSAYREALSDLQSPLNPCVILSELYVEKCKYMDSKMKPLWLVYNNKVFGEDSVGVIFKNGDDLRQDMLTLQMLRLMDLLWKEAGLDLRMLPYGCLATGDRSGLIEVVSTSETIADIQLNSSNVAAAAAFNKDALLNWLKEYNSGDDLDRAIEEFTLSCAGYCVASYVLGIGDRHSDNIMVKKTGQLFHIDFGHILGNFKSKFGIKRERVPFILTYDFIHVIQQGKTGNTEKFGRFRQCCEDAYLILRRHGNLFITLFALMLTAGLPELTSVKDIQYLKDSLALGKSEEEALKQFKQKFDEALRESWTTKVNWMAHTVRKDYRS
Sequence of PIK3CG (human) (P48736 whole entry, looked up): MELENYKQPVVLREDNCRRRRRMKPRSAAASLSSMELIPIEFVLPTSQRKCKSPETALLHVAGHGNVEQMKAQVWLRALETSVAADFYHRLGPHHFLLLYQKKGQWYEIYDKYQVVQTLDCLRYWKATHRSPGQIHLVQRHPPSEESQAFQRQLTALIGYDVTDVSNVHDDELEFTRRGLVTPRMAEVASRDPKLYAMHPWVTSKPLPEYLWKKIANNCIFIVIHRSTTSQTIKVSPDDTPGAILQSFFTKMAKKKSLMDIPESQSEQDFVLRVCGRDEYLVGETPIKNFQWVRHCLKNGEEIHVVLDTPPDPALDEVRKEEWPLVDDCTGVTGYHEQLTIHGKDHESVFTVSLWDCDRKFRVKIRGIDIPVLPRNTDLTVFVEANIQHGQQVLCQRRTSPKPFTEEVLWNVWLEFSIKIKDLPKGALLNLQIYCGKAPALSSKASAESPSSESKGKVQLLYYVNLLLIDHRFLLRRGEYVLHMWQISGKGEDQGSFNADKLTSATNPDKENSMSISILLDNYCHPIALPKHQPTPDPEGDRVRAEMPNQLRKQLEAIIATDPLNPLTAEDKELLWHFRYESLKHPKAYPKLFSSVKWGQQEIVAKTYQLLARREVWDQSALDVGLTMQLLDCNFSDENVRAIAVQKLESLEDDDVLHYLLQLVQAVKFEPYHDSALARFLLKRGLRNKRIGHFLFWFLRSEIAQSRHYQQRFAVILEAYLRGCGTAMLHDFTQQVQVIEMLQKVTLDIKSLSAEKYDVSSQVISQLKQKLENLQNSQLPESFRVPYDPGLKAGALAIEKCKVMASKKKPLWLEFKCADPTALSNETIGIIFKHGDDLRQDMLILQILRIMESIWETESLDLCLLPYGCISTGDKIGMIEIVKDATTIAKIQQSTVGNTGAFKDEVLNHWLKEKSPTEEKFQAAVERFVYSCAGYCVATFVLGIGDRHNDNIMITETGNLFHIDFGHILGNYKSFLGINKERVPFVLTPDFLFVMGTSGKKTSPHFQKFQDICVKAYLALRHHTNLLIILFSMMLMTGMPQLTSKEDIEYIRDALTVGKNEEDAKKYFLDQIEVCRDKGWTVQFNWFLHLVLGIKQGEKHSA
Sequence of PIK3CD (Human) (O00329 whole entry, looked up): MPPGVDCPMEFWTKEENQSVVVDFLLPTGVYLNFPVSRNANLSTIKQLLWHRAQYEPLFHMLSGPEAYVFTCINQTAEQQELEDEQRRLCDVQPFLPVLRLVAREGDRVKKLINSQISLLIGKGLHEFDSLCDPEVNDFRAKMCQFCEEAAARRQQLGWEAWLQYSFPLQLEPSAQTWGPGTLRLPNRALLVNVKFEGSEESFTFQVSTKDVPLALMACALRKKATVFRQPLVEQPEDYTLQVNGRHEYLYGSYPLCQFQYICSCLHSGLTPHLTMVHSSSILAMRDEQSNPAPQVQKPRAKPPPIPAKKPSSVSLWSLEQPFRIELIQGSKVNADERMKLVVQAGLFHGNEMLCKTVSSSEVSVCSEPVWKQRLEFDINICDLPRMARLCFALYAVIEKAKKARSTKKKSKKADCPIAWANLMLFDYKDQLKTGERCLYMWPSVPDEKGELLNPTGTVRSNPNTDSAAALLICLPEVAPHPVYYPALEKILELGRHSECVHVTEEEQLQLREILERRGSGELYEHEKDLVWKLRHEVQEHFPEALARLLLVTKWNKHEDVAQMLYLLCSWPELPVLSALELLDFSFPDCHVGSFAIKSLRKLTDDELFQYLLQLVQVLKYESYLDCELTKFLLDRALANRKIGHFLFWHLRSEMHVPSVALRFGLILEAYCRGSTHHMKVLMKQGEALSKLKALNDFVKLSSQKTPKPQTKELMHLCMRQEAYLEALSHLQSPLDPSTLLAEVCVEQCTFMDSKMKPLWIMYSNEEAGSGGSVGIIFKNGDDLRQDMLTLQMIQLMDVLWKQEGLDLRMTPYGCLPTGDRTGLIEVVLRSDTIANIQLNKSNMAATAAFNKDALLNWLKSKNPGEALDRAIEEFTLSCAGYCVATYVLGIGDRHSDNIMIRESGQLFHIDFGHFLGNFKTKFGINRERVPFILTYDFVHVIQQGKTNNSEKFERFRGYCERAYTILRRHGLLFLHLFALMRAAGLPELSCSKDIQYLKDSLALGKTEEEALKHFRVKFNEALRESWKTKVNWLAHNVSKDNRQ
Sequence of PIK3CA (human) (P42336 whole entry, looked up): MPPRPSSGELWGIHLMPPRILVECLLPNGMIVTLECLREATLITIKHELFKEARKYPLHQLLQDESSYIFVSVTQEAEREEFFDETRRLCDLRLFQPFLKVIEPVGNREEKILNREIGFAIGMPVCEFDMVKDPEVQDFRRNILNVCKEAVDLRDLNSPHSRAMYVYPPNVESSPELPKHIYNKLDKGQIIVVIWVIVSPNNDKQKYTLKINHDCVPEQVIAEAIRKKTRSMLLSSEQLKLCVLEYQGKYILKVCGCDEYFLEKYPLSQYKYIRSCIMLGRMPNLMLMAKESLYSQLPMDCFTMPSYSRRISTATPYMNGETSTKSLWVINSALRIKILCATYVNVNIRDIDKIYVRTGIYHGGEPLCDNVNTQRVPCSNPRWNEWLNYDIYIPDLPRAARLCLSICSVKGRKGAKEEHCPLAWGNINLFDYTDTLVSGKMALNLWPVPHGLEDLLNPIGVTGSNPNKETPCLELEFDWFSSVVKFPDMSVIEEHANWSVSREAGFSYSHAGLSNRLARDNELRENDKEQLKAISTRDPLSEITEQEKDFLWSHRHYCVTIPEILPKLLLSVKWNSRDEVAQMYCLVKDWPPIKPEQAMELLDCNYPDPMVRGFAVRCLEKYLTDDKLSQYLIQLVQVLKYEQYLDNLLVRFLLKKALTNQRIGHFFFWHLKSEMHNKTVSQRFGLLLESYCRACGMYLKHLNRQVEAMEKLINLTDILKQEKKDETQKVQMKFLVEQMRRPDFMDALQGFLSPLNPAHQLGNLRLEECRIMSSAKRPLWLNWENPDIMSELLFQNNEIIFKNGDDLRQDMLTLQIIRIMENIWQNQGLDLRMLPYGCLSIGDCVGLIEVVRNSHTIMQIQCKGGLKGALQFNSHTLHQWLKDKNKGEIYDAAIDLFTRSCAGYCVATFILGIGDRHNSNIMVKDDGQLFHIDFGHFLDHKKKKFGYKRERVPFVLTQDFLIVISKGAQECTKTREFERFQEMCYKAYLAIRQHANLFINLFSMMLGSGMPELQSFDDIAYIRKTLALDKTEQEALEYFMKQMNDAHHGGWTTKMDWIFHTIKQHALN

Take `CC1(C)COC1c1cc2nc(-c3cnc(N)nc3)nc(N3CCOCC3)c2s1` (centres undefined): the Ki turned out to be 19 nM on PIK3CB (Human), 1 nM on PIK3CA (human), 9 nM on PIK3CD (Human) and 5 nM at PIK3CG (human).

For the compound `CC1(C)OCCc2c1sc1c(N3CCOCC3)nc(-c3cnc(N)nc3)nc21`, the Ki on PIK3CB (Human) turned out to be 14 nM; on PIK3CA (human) it was 1 nM; at PIK3CD (Human), 3 nM; on PIK3CG (human), 3 nM.

Regarding `COC1(c2sc3c(N4CCOCC4)nc(-c4cnc(N)nc4)nc3c2C)COC1`, the Ki stood at 27 nM on PIK3CB (Human), 7 nM on PIK3CD (Human) and 7 nM on PIK3CG (human).

For `COC(C)(C)c1cc2nc(-c3cnc(N)nc3)nc(N3CCOCC3)c2s1`, the Ki is 21 nM on PIK3CB (Human), 2 nM on PIK3CD (Human) and 4 nM at PIK3CG (human).

The values are drawn from the Kinase Knowledgebase extract (Sharma et al. 2016).
